Measurements: patent publication US10093683B2, “Factor XIa inhibitors” (Merck Sharp & Dohme Corp., priority 2014, dated 2018)

How the values were obtained:
[1] = target: human Factor XIa (Homo sapiens (Human), UniProt P03951); experiment: Factor XIa Assay; type: biochemical; conditions: purified human Factor XIa 40 pM, Z-Gly-Pro-Arg-AFC 100 μM, pH 7.4; read-out: FXIa Ki
Outline: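 Ki derived from the dependence of Vo/Vi on inhibitor concentration under a competitive-inhibition model, after pre-equilibration of enzyme and inhibitor. Reaction: 40 pM human FXIa, 100 μM Z-Gly-Pro-Arg-AFC, HEPES 50 mM pH 7.4 with NaCl, CaCl2 and PEG 8000; run at room temperature or 37° C.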

[2] = target: Human plasma kallikrein (Homo sapiens (Human), UniProt P03952); experiment: Kallikrein Assay; type: biochemical; conditions: purified Human plasma kallikrein 0.5 nM, Acetyl-K-P-R-AFC, pH 7.4; Ki from IC50 by Cheng Prusoff
Human plasma kallikrein, sequence (P03952 391-638): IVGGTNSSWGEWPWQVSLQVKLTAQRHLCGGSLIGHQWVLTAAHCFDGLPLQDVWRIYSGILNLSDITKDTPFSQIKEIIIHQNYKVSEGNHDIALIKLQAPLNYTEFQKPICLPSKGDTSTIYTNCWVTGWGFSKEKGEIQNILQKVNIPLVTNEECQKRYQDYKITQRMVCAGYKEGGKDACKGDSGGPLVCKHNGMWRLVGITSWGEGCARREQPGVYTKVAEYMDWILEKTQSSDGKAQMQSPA
Human plasma kallikrein, sequence (P03952 20-390 partner): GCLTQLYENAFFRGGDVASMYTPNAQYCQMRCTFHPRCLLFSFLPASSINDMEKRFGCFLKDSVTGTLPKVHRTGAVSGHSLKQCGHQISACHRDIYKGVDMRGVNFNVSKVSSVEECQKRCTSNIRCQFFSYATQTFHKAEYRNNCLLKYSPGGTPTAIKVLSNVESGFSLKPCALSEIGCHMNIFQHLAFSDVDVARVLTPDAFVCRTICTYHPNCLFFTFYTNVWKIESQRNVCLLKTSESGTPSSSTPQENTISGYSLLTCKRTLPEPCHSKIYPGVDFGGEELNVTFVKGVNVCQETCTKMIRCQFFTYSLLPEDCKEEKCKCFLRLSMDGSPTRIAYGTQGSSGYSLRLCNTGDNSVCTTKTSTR
Protocol: The effectiveness of a compound of the present invention as an inhibitor of Kallikrein can be determined using a relevant purified serine protease, and an appropriate synthetic substrate. The rate of hydrolysis of the chromogenic or fluorogenic substrate by the relevant serine protease was measured both in the absence and presence of compounds of the present invention. Assays were conducted at room temperature or at 37° C. […] A decrease in the rate of fluorescence change in the presence of inhibitor is indicative of enzyme inhibition. Such methods are known to one skilled in the art. The results of this assay are expressed as the inhibitory constant, Ki.
Kallikrein determinations were made in 50 mM HEPES buffer at pH 7.4 containing 150 mM NaCl, 5 mM CaCl2, and 0.1% PEG 8000 (polyethylene glycol; Fisher Scientific). Determinations were made using purified Human plasma kallikrein at a final concentration of 0.5 nM (Enzyme Research Laboratories) and the synthetic substrate, Acetyl-K-P-R-AFC (Sigma #C6608) at a concentration of […].
Times required to achieve equilibration between enzyme and inhibitor were determined in control experiments. The reactions were performed under linear progress curve conditions and fluorescence increase measured at 405 Ex/510 Em nm. […] IC50 was determined by inflection point from a four parameter logistic curve fit. Ki was calculated using the Cheng Prusoff equation, Ki=IC50/(1+([S]/Km)).

human Factor XIa, sequence (P03951 388-625): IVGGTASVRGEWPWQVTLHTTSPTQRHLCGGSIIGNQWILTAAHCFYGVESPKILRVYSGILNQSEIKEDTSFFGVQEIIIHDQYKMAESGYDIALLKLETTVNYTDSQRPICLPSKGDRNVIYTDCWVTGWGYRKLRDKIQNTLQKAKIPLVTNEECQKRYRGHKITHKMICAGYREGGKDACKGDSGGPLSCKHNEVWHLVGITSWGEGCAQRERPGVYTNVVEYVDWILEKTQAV
human Factor XIa, sequence (P03951 19-387 partner): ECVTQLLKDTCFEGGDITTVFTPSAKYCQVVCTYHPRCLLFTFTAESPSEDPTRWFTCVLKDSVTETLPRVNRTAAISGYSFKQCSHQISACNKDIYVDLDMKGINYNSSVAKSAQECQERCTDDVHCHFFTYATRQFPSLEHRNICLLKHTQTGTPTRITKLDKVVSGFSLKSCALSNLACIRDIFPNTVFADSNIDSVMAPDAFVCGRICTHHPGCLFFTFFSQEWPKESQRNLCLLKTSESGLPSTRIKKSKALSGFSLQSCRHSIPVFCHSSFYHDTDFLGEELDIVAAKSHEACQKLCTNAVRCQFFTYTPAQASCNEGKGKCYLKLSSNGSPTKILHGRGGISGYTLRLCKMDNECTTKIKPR

SMILES | Ki [1] | Ki [2]
COC(=O)Nc1ccc(C(=O)N[C@@H](CC2CC2)C(=O)N2CC[C@@]3(C2)OC(=O)Nc2ccc(Cl)c(F)c23)cc1 [Example 61, methyl (4-(((S)-1-((R)-6-chloro-5-fluoro-2-oxo-1,2-dihydrospiro[benzo[d][1,3]oxazine-4,3′-pyrrolidin]-1′-yl)-3-cyclopropyl-1-oxopropan-2-yl)carbamoyl)phenyl)carbamate] | 12.7 nM | 11.2 nM
COC(=O)Nc1ccc(C(=O)N[C@@H](Cc2ccncc2)C(=O)N2CCC[C@@]3(C2)OC(=O)Nc2ccc(Cl)c(F)c23)cc1 [Example 62, methyl (4-(((S)-1-((R)-6-chloro-5-fluoro-2-oxo-1,2-dihydrospiro[benzo[d][1,3]oxazine-4,3′-piperidin]-1′-yl)-1-oxo-3-(pyridin-4-yl)propan-2-yl)carbamoyl)phenyl)carbamate] | 0.88 nM | 0.54 nM
COC(=O)Nc1ccc(C(=O)N[C@@H](CC2CC2)C(=O)N2CCC[C@@]3(C2)OC(=O)Nc2ccc(Cl)c(F)c23)cc1 [Example 63, methyl (4-(((S)-1-((R)-6-chloro-5-fluoro-2-oxo-1,2-dihydrospiro[benzo[d][1,3]oxazine-4,3′-piperidin]-1′-yl)-3-cyclopropyl-1-oxopropan-2-yl)carbamoyl)phenyl)carbamate] | 5.64 nM | 1.73 nM
COC(=O)Nc1ccc(C(=O)N[C@@H](CC2CCOCC2)C(=O)N2CCC[C@@]3(C2)OC(=O)Nc2ccc(Cl)cc23)cc1 [Example 65, methyl (4-(((S)-1-((R)-6-chloro-2-oxo-1,2-dihydrospiro[benzo[d][1,3]oxazine-4,3′-piperidin]-1′-yl)-1-oxo-3-(tetrahydro-2H-pyran-4-yl)propan-2-yl)carbamoyl)phenyl)carbamate] | 41.5 nM | 5.4 nM
COC(=O)Nc1ccc(C(=O)N[C@@H](CC2CC2)C(=O)N2CCC[C@@]3(C2)OC(=O)Nc2ccc(C)cc23)cc1 [Example 66, methyl (4-(((S)-3-cyclopropyl-1-((R)-6-methyl-2-oxo-1,2-dihydrospiro[benzo[d][1,3]oxazine-4,3′-piperidin]-1′-yl)-1-oxopropan-2-yl)carbamoyl)phenyl)carbamate] | 30 nM | 3.8 nM
COC(=O)Nc1ccc(C(=O)N[C@@H](CC2CCCCC2)C(=O)N2CCC[C@@]3(C2)OC(=O)Nc2ccc(Cl)cc23)cc1 [Example 72, methyl (4-(((S)-1-((R)-6-chloro-2-oxo-1,2-dihydrospiro[benzo[d][1,3]oxazine-4,3′-piperidin]-1′-yl)-3-cyclohexyl-1-oxopropan-2-yl)carbamoyl)phenyl)carbamate] | 3.58 nM | 17.7 nM
COC(=O)Nc1ccc(C(=O)N[C@@H](Cc2ccc(F)cn2)C(=O)N2CCC[C@@]3(C2)OC(=O)Nc2ccc(Cl)c(F)c23)cc1 [Example 74, methyl (4-(((S)-1-((R)-6-chloro-5-fluoro-2-oxo-1,2-dihydrospiro[benzo[d][1,3]oxazine-4,3′-piperidin]-1′-yl)-3-(5-fluoropyridin-2-yl)-1-oxopropan-2-yl)carbamoyl)phenyl)carbamate] | 2.82 nM | 2.53 nM
COC(=O)Nc1ccc(C(=O)N[C@@H](Cc2ccc(OC)cn2)C(=O)N2CCC[C@@]3(C2)OC(=O)Nc2ccc(Cl)c(F)c23)cc1 [Example 75, methyl (4-(((S)-1-((R)-6-chloro-5-fluoro-2-oxo-1,2-dihydrospiro[benzo[d][1,3]oxazine-4,3′-piperidin]-1′-yl)-3-(5-methoxypyridin-2-yl)-1-oxopropan-2-yl)carbamoyl)phenyl)carbamate] | 1.9 nM | 1.56 nM
COC(=O)Nc1ccc(C(=O)N[C@@H](Cc2ccncc2F)C(=O)N2CCC[C@@]3(C2)OC(=O)Nc2ccc(Cl)c(F)c23)cc1 [Example 76, methyl (4-(((S)-1-((R)-6-chloro-5-fluoro-2-oxo-1,2-dihydrospiro[benzo[d][1,3]oxazine-4,3′-piperidin]-1′-yl)-3-(3-fluoropyridin-4-yl)-1-oxopropan-2-yl)carbamoyl)phenyl)carbamate] | 1.39 nM | 1.2 nM
COC(=O)Nc1ccc(C(=O)N[C@@H](Cc2ccc(-c3cc[nH]n3)cc2)C(=O)N2CC[C@@]3(C2)OC(=O)Nc2ccc(Cl)cc23)cc1 [Example 77, methyl (4-(((S)-3-(4-(1H-pyrazol-3-yl)phenyl)-1-((R)-6-chloro-2-oxo-1,2-dihydrospiro[benzo[d][1,3]oxazine-4,3′-pyrrolidin]-1′-yl)-1-oxopropan-2-yl)carbamoyl)phenyl)carbamate] | 3.48 nM | 32.6 nM
COC(=O)Nc1ccc(C(=O)N[C@@H](Cc2ccc(-c3cn[nH]c3)cc2)C(=O)N2CC[C@@]3(C2)OC(=O)Nc2ccc(Cl)cc23)cc1 [Example 78, methyl (4-(((S)-3-(4-(1H-pyrazol-4-yl)phenyl)-1-((R)-6-chloro-2-oxo-1,2-dihydrospiro[benzo[d][1,3]oxazine-4,3′-pyrrolidin]-1′-yl)-1-oxopropan-2-yl)carbamoyl)phenyl)carbamate] | 2.37 nM | 24.5 nM
COC(=O)Nc1ccc(C(=O)N[C@@H](Cc2ccc(-c3cc[nH]c3)cc2)C(=O)N2CC[C@@]3(C2)OC(=O)Nc2ccc(Cl)cc23)cc1 [Example 79, methyl (4-(((S)-3-(4-(1H-pyrrol-3-yl)phenyl)-1-((R)-6-chloro-2-oxo-1,2-dihydrospiro[benzo[d][1,3]oxazine-4,3′-pyrrolidin]-1′-yl)-1-oxopropan-2-yl)carbamoyl)phenyl)carbamate] | 9.98 nM | 14.5 nM
COC(=O)Nc1ccc(C(=O)N[C@@H](Cc2ccc(-c3cc(C(F)(F)F)nn3C)cc2)C(=O)N2CC[C@@]3(C2)OC(=O)Nc2ccc(Cl)cc23)cc1 [Example 81, methyl (4-(((S)-1-((R)-6-chloro-2-oxo-1,2-dihydrospiro[benzo[d][1,3]oxazine-4,3′-pyrrolidin]-1′-yl)-3-(4-(1-methyl-3-(trifluoromethyl)-1H-pyrazol-5-yl)phenyl)-1-oxopropan-2-yl)carbamoyl)phenyl)carbamate] | 29.9 nM | 7.98 nM
COC(=O)Nc1ccc(C(=O)N[C@@H](Cc2ccc(-c3conc3C)cc2)C(=O)N2CC[C@@]3(C2)OC(=O)Nc2ccc(Cl)cc23)cc1 [Example 82, methyl (4-(((S)-1-((R)-6-chloro-2-oxo-1,2-dihydrospiro[benzo[d][1,3]oxazine-4,3′-pyrrolidin]-1′-yl)-3-(4-(3-methylisoxazol-4-yl)phenyl)-1-oxopropan-2-yl)carbamoyl)phenyl)carbamate] | 7.12 nM | 11.7 nM
COC(=O)Nc1ccc(C(=O)N[C@@H](Cc2ccc(-c3cnn(C)c3)cc2)C(=O)N2CC[C@@]3(C2)OC(=O)Nc2ccc(Cl)cc23)cc1 [Example 83, methyl (4-(((S)-1-((R)-6-chloro-2-oxo-1,2-dihydrospiro[benzo[d][1,3]oxazine-4,3′-pyrrolidin]-1′-yl)-3-(4-(1-methyl-1H-pyrazol-4-yl)phenyl)-1-oxopropan-2-yl)carbamoyl)phenyl)carbamate] | 2.65 nM | 31.1 nM
COC(=O)Nc1ccc(C(=O)N[C@@H](Cc2cc(C3CC3)no2)C(=O)N2CC[C@@]3(C2)OC(=O)Nc2ccc(Cl)cc23)cc1 [Example 84, methyl (4-(((S)-1-((R)-6-chloro-2-oxo-1,2-dihydrospiro[benzo[d][1,3]oxazine-4,3′-pyrrolidin]-1′-yl)-3-(3-cyclopropylisoxazol-5-yl)-1-oxopropan-2-yl)carbamoyl)phenyl)carbamate] | 28.1 nM | 28.4 nM
